Laboratory results reported in patent publication US12202835B2, “Substituted aromatic ring-linked dioxinoquinazolines and dioxinoquinolines as kinase inhibitors” (BEIJING SCITECH-MQ PHARMACEUTICALS LIMITED, priority 2018, dated 2025).

System: EBC1 cells
Assay: Assay for inhibiting the proliferation of EBC1 cells (CCK-8)
Type: cell-based
Settings: Homo sapiens, EBC-1
Method in brief: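 Cells seeded in 96-well plates overnight, then exposed 72 h to 9 three-fold dilutions of compound (0.25% DMSO final). Viability by CCK-8 (1-2 h at 37° C., OD 450 nm), survival normalized to untreated and cell-free blanks; IC50 by curve fitting.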

Structure (SMILES)	IC50 [nM]
CCOc1ccn(-c2ccc(Cl)cc2)c(=O)c1C(=O)Nc1ccc(Oc2ccnc3cc(OC)c4c(c23)OCCO4)c(F)c1 [Example 113, N-(3-fluoro-4-((5-methoxy-2,3-dihydro-[1,4]dioxino[2,3-f]quinolin-10-yl)oxy)phenyl)-2-oxo-4-ethoxy-1-(4-chlorophenyl)-1,2-dihydropyridin-3-carboxamide]	50 to 200
COCCOc1cc2nccc(Oc3ccc(NC(=O)c4cccn(-c5ccc(F)cc5)c4=O)cc3F)c2c2c1OCCO2 [Example 34, N-(3-fluoro-4-((5-(2-methoxyethoxy)-2,3-dihydro-[1,4]dioxino[2,3-f]quinolin-10-yl)oxy)phenyl)-1-(4-fluorophenyl)-2-oxo-1,2-dihydropyridine-3-carboxamide]	≤ 50
COc1ccn(-c2ccc(F)cc2)c(=O)c1C(=O)Nc1ccc(Oc2ccnc3cc(OCCCN4CCOCC4)c4c(c23)OCCO4)c(F)c1 [Example 21, N-(3-fluoro-4-((5-(3-morpholinopropoxy)-2,3-dihydro-[1,4]dioxino[2,3-f]quinolin-10-yl)oxy)phenyl)-1-(4-fluorophenyl)-4-methoxy-2-oxo-1,2-dihydropyridine-3-carboxamide]	≤ 50
CCOc1ccn(-c2ccc(F)cc2)c(=O)c1C(=O)Nc1ccc(Oc2ccnc3cc(OCCOC)c4c(c23)OCCO4)c(F)c1 [Example 36, N-(3-fluoro-4-((5-(2-methoxyethoxy)-2,3-dihydro-[1,4]dioxino[2,3-f]quinolin-10-yl)oxy)phenyl)-1-(4-fluorophenyl)-4-ethoxy-2-oxo-1,2-dihydropyridine-3-carboxamide]	≤ 50
CCOc1ccn(-c2ccc(F)cc2)c(=O)c1C(=O)Nc1ccc(Oc2ccnc3cc(OCCCN4CCOCC4)c4c(c23)OCCO4)c(F)c1 [Example 22, N-(3-fluoro-4-((5-(3-morpholinopropoxy)-2,3-dihydro-[1,4]dioxino[2,3-f]quinolin-10-yl)oxy)phenyl)-1-(4-fluorophenyl)-4-ethoxy-2-oxo-1,2-dihydropyridine-3-carboxamide]	≤ 50
C=CCn1cc(C(=O)Nc2ccc(Oc3ccnc4cc(OC)c5c(c34)OCCO5)c(F)c2)c(=O)n(-c2ccc(F)cc2)c1=O [Example 100, N-(3-fluoro-4-((5-methoxy-2,3-dihydro-[1,4]dioxino[2,3-f]quinolin-10-yl)oxy)phenyl)-3-(4-fluorophenyl)-1-allyl-2,4-dioxo-1,2,3,4-tetrahydropyrimidine-5-carboxamide]	≤ 50
COc1cc2nccc(Oc3ccc(NC(=O)c4cn(CCF)c(=O)n(-c5ccc(F)cc5)c4=O)cc3F)c2c2c1OCCO2 [Example 101, N-(3-fluoro-4-((5-methoxy-2,3-dihydro-[1,4]dioxino[2,3-f]quinolin-10-yl)oxy)phenyl)-3-(4-fluorophenyl)-1-(2-fluoroethyl)-2,4-dioxo-1,2,3,4-tetrahydropyrimidine-5-carboxamide]	≤ 50
CCOc1ccn(-c2ccc(F)cc2)c(=O)c1C(=O)Nc1ccc(Oc2ccnc3cc(OCC4(N)CC4)c4c(c23)OCCO4)c(F)c1 [Example 105, N-(4-((5-((1-aminocyclopropyl)methoxy)-2,3-dihydro-[1,4]dioxino[2,3-f]quinolin-10-yl)oxy)-3-fluorophenyl)-4-ethoxy-1-(4-fluorophenyl)-2-oxo-1,2-dihydropyridine-3-carboxamide]	≤ 50
CC(C)n1cc(C(=O)Nc2ccc(Oc3ccnc4cc(OCC5(N)CC5)c5c(c34)OCCO5)c(F)c2)c(=O)n(-c2ccc(F)cc2)c1=O [Example 106, N-(3-fluoro-4-((5-((1-aminocyclopropyl)methoxy)-2,3-dihydro-[1,4]dioxino[2,3-f]quinolin-1 0-yl)oxy)phenyl)-3-(4-fluorophenyl)-1-isopropyl-2,4-dioxo-1,2,3,4-tetrahydropyrimidine-5-carboxamide]	≤ 50
CCOc1ccn(-c2ccc(F)cc2)c(=O)c1C(=O)Nc1ccc(Oc2ncnc3cc(OCCCN4CCOCC4)c4c(c23)OCCO4)c(F)c1 [Example 6, N-(3-fluoro-4-((5-(3-morpholinopropoxy)-2,3-dihydro-[1,4]dioxino[2,3-f]quinazolin-10-yl)oxy)phenyl)-1-(4-fluorophenyl)-4-ethoxy-2-oxo-1,2-dihydropyridine-3-carboxamide]	≤ 50
COc1ccn(-c2ccc(F)cc2)c(=O)c1C(=O)Nc1ccc(Oc2ncnc3cc(OCCCN4CCOCC4)c4c(c23)OCCO4)c(F)c1 [Example 5, N-(3-fluoro-4-((5-(3-morpholinopropoxy)-2,3-dihydro-[1,4]dioxino[2,3-f]quinazolin-10-yl)oxy)phenyl)-1-(4-fluorophenyl)-4-methoxy-2-oxo-1,2-dihydropyridine-3-carboxamide]	≤ 50
COc1cc2nccc(Oc3ccc(NC(=O)c4cn(C)c(=O)n(-c5ccc(F)cc5)c4=O)cc3F)c2c2c1OCCO2 [Example 13, N-(3-fluoro-4-((5-methoxy-2,3-dihydro-[1,4]dioxino[2,3-f]quinolin-10-yl)oxy)phenyl)-3-(4-fluorophenyl)-1-methyl-2,4-dioxo-1,2,3,4-tetrahydropyrimidine-5-carboxamide]	50 to 200
